One experiment deals with LXFL 1121. Kind of experiment: Cytotoxicity, propidium iodide based monolayer assay, LXFL 1121. The conditions noted are these: 96 h; LXFL 1121 (lung large cell carcinoma), four days of treatment, T/C=50%; read-out: Absolute IC50. The procedure:
(§1) The cytotoxicity was tested for compounds of the invention on five different cell-lines, namely LXFL 1121, MAXF 401, MMXF L-636, PRXF PC-3M and UXF 1138 which are respectively lung large cell carcinoma, breast adeno carcinoma, multiple myeloma, prostate adeno carcinoma and uterine sarcoma.
(§2) A working stock solution of the test compounds was prepared in DMSO at a concentration of 33 mM or 8.25 mM, and small aliquots were stored at −20° C. On each day of an experiment, a frozen aliquot of the working stock solution was thawed and stored at room temperature prior to and during treatment.
(§3) All liquid handling steps were performed using the Tecan Freedom EVO 200 platform. First, serial 2-fold dilutions of the 33 mM DMSO working stock solution were done in DMSO. […]
(§4) A modified propidium iodide (PI) based monolayer assay was used to assess the anti-cancer activity of the compounds. Briefly, cells were harvested from exponential phase cultures, counted and plated in 96 well flat-bottom microtiter plates at a cell density of 4,000 to 40,000 cells/well dependent on the cell line's growth rate. […] After an incubation period of 1-2 hours at room temperature, fluorescence (FU) was measured using the Enspire Multimode Plate Reader (excitation λ=530 nm, emission λ=620 nm) to quantify the amount of attached viable cells. […]

For a further experiment, the system named is MMXF L-363. The experiment can be described thus: Cytotoxicity, propidium iodide based monolayer assay, MMXF L-363. The note with it: Homo sapiens, 96 h; MMXF L-363 (multiple myeloma), four days of treatment, T/C=50%; read-out: Absolute IC50. The format is cell-based. As for the experimental part: as §1, §2, §3, §4
For another experiment, the system named is PRXF PC-3M. Kind of experiment: Cytotoxicity, propidium iodide based monolayer assay, PRXF PC-3M. The format is cell-based. The note with it: Homo sapiens, 96 h; PRXF PC-3M (prostate adeno carcinoma), four days of treatment, T/C=50%; read-out: Absolute IC50. The procedure:
as §1, §2, §3, §4

Experiment [1] deals with H1N1 (influenza A/New Caledonia/20/99). Kind of experiment: Antiviral effect on A549 cells infected with H1N1 (MUNANA neuraminidase readout). The class given is cell-based. The conditions noted are these: H1N1 A/New Caledonia/20/99 at MOI 0.1, 48 h post-infection, MUNANA fluorescence, read-out: IC50. The procedure: The antiviral effect of the compounds of the invention have been tested on A549 cell lines infected with H1N1 (influenza A/New Caledonia/20/99).
Human A549 cells (80,000 cells/well in a 96 well plate) were treated with a range of concentration of test compounds and immediately infected by H1N1 A/New Caledonia/20/99 virus (clinical isolate) at MOI of 0.1 in DMEM/1% Penicillin/streptomycin supplemented with 0.25 μg/ml TPCK trypsin (Sigma) and incubated at 37° C. in 5% CO2. 48 h post-infection, supernatants (25 μl) were collected and transferred into a 96-well black flat-bottom plate, mixed with 25 μl PBS with Ca++/Mg++(Thermo Fisher) and 50 μl of 2′-(4-Methylumbelliferyl)-α-D-N-acetylneuraminic acid sodium salt hydrate stock-solution (20 μM, MUNANA, Sigma). Plates were incubated 1 h at 37° C. and reaction is stopped by adding 100 μl of Stop Solution (glycine 0.1 M pH10.7/25% ethanol). The amount of fluorescent product released by MUNANA hydrolysis (4-MU) was measured in a Tecan spectrophotometer with excitation and emission wavelengths of 365 and 450 nm respectively.

Another experiment concerns NFκB. Kind of experiment: NFκB reporter assay (NanoLuciferase) in A549 cells, TNFα stimulation. The class given is cell-based. The note with it: Homo sapiens, 4 ng/ml TNFα, 6 hours. An excerpt:
Compounds of the present invention have been tested for their capacity to inhibit NFκB.
The NFκB reporter construct was made by cloning 5 NFκB responsive elements upstream of a NanoLuciferase reporter gene flanked by AAVS1 genomic sequences.
NFκB Responsive element fused with NanoLuciferase and SV40 late Poly(A) signal was amplified from pNL3.2-NFκB-Nluc (Promega) using NFKB-NLUC-F and NFKB-NLUC-R primers and inserted by Infusion (TaKaRa) in AAVS1 SA-2A-puro-pA donor plasmid (Hockemeyer et al, Nat Biotechnol. 2009, 27, 851-7) digested by Sal1. pCRISPR AAVS1-T2 expressing a guide RNA (gRNA) to target human AAVS1 (T2 target sequence) was constructed by inserting AAVS1-T2A hybridized primers in pLentiCRISPR v2-blast (Sanjana et al, Nat Methods. 2014, 11, 783-4) digested by Bsmb1.
A549 cells were transfected by the plasmids and puromycine selected for 5 days (1 μg mL-1). Then clones were obtained by limiting dilution and selected to maximize TNFα dependent NFkB-NanoLuciferase induction.
The reporter cells were seeded on a 96-well plate for overnight with DMEM including 10% FBS. Test compounds were added at varying concentrations. The cells then were treated with 4 ng/ml TNFα (Peprotech, ref E251) in DMEM+10% FBS. NanoGlo luciferase assay (Promega) was carried out 6 hours later. Luminescence was measured using a Spark 20M spectrofluorimeter (Tecan). Values were normalized to the luminescence measured in untreated cells.
(In general: In a reporter assay the amount or activity of a reporter protein is the signal.)

A further experiment concerns MAXF 401. The experiment can be described thus: Cytotoxicity, propidium iodide based monolayer assay, MAXF 401. The format is cell-based. The conditions noted are these: Homo sapiens, MAXF401, 96 h; MAXF 401 (breast adeno carcinoma), four days of treatment, T/C=50%; read-out: Absolute IC50. As for the experimental part:
as §1, §2, §3, §4

The IC50 is the concentration needed to halve the response being measured. One may read the EC50 as the concentration needed to bring the measured effect to its halfway point. Turning to `O=C(Nc1scc(C2CCc3ccccc3C2)c1C(=O)O)c1ccccc1` (stereo not drawn) [#16], the IC50 with LXFL 1121 was determined as 878 nM; with MMXF L-363, 357 nM; in the experiment with PRXF PC-3M it was 485 nM; in experiment [1] it was 11.1 nM; in the experiment on MAXF 401, 507 nM. Besides, in the experiment on NFκB, the EC50 was found to be 80 nM.
